For assay [1], the target named is T1, hCB2 (Homo sapiens, UniProt P34972). The assay can be described thus: hCB2 GTPγS agonist assay (HEK-293 membranes). The format is biochemical. The conditions noted are these: for EC50: GTPγS agonist, HEK membranes, read-out: hCB2 EC50 (GTPyS ag, nM, HEK). The gist of the method:
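Membranes from HEK-293 cells transfected with human CB2 (5 μg) incubated with SPA beads, 0.1 nM [35S]GTPγS and 20 uM GDP in 50 mM HEPES pH 7.4, 100 mM NaCl, 5 mM MgCl2, 0.001% saponin. Incubation 90 min at room temperature. Agonist-stimulated binding read by scintillation counting.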

Assay [2] addresses T2, hCB1 (Homo sapiens, UniProt P21554). The assay can be described thus: hCB1 radioligand binding assay ([3H]-CP 55,940 displacement). To be noted: hCB1 IC50 (CP displ, nM, HEK), HEK membranes. The gist of the method:
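Membranes from stable HEK-293 cells expressing recombinant hCB1 (2-10 μg protein) incubated 90 minutes at room temperature with 0.5 nM [3H]-CP 55,940 in 50 mM Tris-HCl pH 7.5, 5 mM MgCl2, 2.5 mM EDTA, 0.1% fatty acid free BSA. Filtration then scintillation counting; nonspecific binding with 1 μM unlabelled CP 55,940.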

Assay [3] concerns the target T2, hCB1. The assay can be described thus: hCB1 cAMP agonist assay (HEK-293 cells). The format is cell-based.
The target in assay [4] is T1, hCB2. The assay can be described thus: hCB2 radioligand binding assay ([3H]-CP 55,940 displacement). The conditions noted are these: hCB2 IC50 (CP displ, nM, HEK), HEK membranes. The method, boiled down:
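Membranes from cells transfected with human CB2 cDNA (pcDNA3.1+), kept in 20 mM HEPES pH 7.4, MgCl2, EDTA, sucrose with protease inhibitors.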

Assay [5] deals with T1, hCB2. The assay can be described thus: hCB2 cAMP agonist assay (HEK-293 cells). The format is cell-based. To be noted: for EC50: cAMP agonist, HEK, 96-well, read-out: hCB2 EC50 (cAMP ag, nM, HEK (96-well)). The gist of the method:
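HEK-293 cells stably expressing hCB2, treated 30 min at 37° C with compound in HBSS/10 mM HEPES/0.1% BSA alongside forskolin (90 uM in the 3× solution, not final).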

Each structure is given as a SMILES string. pEC50: −log10 of the molar value. Where two headings read alike, the source gives them in different places.

As a reminder, the pEC50 is the negative decadic logarithm of the EC50, by convention in mol/L. A lower pEC50 goes with a large EC50. One may read the IC50 as the point on the concentration scale where inhibition reaches its midpoint. Read a low IC50 as greater potency in that assay. As a reminder, the EC50 is the midpoint of the concentration-response curve.

T1 sequence (P34972 whole entry): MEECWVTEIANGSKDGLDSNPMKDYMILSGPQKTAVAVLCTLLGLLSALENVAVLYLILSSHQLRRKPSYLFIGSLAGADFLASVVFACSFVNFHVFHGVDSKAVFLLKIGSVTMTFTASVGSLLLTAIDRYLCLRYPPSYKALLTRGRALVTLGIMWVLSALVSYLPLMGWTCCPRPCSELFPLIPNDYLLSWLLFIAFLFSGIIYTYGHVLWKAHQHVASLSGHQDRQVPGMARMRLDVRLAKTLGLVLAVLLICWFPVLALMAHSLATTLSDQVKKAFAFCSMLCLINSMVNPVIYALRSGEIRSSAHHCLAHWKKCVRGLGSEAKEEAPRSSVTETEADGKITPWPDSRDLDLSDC
T2 sequence (P21554 whole entry): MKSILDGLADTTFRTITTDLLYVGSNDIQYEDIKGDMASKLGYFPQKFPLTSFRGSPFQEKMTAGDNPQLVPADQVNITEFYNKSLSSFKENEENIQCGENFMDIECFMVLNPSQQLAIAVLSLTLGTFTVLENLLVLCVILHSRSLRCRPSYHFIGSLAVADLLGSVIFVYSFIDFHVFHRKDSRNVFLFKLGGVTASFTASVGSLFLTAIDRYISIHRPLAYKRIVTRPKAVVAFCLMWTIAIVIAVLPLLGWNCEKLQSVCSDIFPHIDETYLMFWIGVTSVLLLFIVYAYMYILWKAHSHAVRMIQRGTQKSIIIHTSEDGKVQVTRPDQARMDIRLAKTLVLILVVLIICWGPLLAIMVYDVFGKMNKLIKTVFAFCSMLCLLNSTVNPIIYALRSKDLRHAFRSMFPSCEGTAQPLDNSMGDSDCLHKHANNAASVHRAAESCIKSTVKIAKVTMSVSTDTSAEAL

On to `CCCCn1c(C)c(C(=O)c2cc3ccsc3n2CCC)c2ccccc21` [Compound I-58], for which the pEC50 on hCB2 [1], on hCB1 [3] and at hCB2 [5] was more than 7.00 in each case. Besides, the IC50 at hCB1 [2] is 100 to 1000 nM; at hCB2 [4], less than 100 nM.

As to `CCCn1c(C)c(C(=O)c2cc3ccsc3n2CCC)c2cc(C)ccc21` [Compound I-69], the pEC50 on hCB2 [1] and at hCB2 [5] was more than 7.00 in each case. The 50% inhibitory concentration (IC50) was 1000 to 10000 nM at hCB1 [2] and less than 100 nM on hCB2 [4]. Further, the “hCB1 EC50 (cAMP ag, nM, HEK (96-well))” value at hCB1 [3] (cAMP agonist, HEK, 96-well) was “NS (“Not Significant,” which means less than 30% agonist activity when compared to the positive control)”.

On to `CCCn1c(C)c(C(=O)c2cc3ccsc3n2CC2CCOCC2)c2ccccc21` [Compound I-72], for which the results for the EC50 at hCB2 [1] and on hCB2 [5] were 100 to 1000 nM and less than 100 nM, respectively. The IC50 on hCB1 [2] and on hCB2 [4] was 100 to 1000 nM throughout. The “hCB1 EC50 (cAMP ag, nM, HEK (96-well))” value on hCB1 [3] (cAMP agonist, HEK, 96-well) was “NS (“Not Significant,” which means less than 30% agonist activity when compared to the positive control)”.

On to `CCCn1c(C(=O)c2c(C)n(CCN3CCOCC3)c3ccccc23)cc2ccsc21` [Compound I-73], for which the figures for the negative-log EC50 (pEC50) at hCB2 [1], at hCB1 [3] and at hCB2 [5] were more than 7.00, 6.00 to 7.00 and more than 7.00, respectively. Further, the IC50 on hCB1 [2] is 100 to 1000 nM; at hCB2 [4] it was less than 100 nM.

With `CCCn1c(C)c(C(=O)c2cc3ccsc3[nH]2)c2ccccc21` [Compound I-74], the pEC50 on hCB2 [1] and at hCB2 [5] was 6.00 to 7.00 in each case. The half-maximal inhibitory concentration (IC50) on hCB1 [2] is 1000 to 10000 nM; on hCB2 [4], 100 to 1000 nM. In addition, the “hCB1 EC50 (cAMP ag, nM, HEK (96-well))” value at hCB1 [3] (cAMP agonist, HEK, 96-well) is “NS (“Not Significant,” which means less than 30% agonist activity when compared to the positive control)”.

For the molecule `CCCn1c(C)c(C(=O)c2cc3cc(Cl)sc3[nH]2)c2c1CCCC2` [Compound I-76], the half-maximal effective concentration (EC50) at hCB2 [1] and at hCB2 [5] was 100 to 1000 nM in each case. The IC50 is more than 10000 nM at hCB1 [2] and 100 to 1000 nM on hCB2 [4]. For the same molecule, the “hCB1 EC50 (cAMP ag, nM, HEK (96-well))” value on hCB1 [3] (cAMP agonist, HEK, 96-well) is reported as “NS (“Not Significant,” which means less than 30% agonist activity when compared to the positive control)”.

`CCCn1c(C)c(C(=O)c2cc3ccsc3n2CCC)c2c1CCCC2` [Compound I-77]: the EC50 at hCB2 [1] and at hCB2 [5] was less than 100 nM throughout. Moreover, the figures for the IC50 at hCB1 [2] and at hCB2 [4] were 1000 to 10000 nM and less than 100 nM, respectively. For the same molecule, at hCB1 [3] (cAMP agonist, HEK), the “hCB1 EC50 (cAMP ag, nM HEK (24-well))” value was “NS (“Not Significant,” which means less than 30% agonist activity when compared to the positive control)”. The “hCB1 EC50 (cAMP ag, nM, HEK (96-well))” value at hCB1 [3] (cAMP agonist, HEK, 96-well) is recorded as “NS (“Not Significant,” which means less than 30% agonist activity when compared to the positive control)”.

`CCCn1c(C)c(C(=O)c2cc3ccsc3n2CCC)c2ccccc21` [Compound I-78]: the pEC50 on hCB2 [1] and on hCB2 [5] was more than 7.00 each time. Moreover, the concentration for half-maximal inhibition (IC50) at hCB1 [2] is 1000 to 10000 nM; at hCB2 [4], less than 100 nM. For the same molecule, the “hCB1 EC50 (cAMP ag, nM HEK (24-well))” value on hCB1 [3] (cAMP agonist, HEK) is reported as “NS (“Not Significant,” which means less than 30% agonist activity when compared to the positive control)”. On hCB1 [3] (cAMP agonist, HEK, 96-well), the “hCB1 EC50 (cAMP ag, nM, HEK (96-well))” value is given as “NS (“Not Significant,” which means less than 30% agonist activity when compared to the positive control)”.

For `CCCn1c(C)c(C(=O)c2cc3ccsc3n2CCC)c2c1CCCCC2` [Compound I-80], the EC50 was less than 100 nM at hCB2 [1]; 1000 to 10000 nM on hCB1 [3] (cAMP agonist, HEK, 96-well, read-out: hCB1 EC50 (cAMP ag, nM, HEK (96-well))); less than 100 nM at hCB2 [5]. Also, the IC50 at hCB1 [2] was 100 to 1000 nM; on hCB2 [4], less than 100 nM.

With `CCCn1c(C)c(C(=O)c2cc3sccc3[nH]2)c2ccccc21` [Compound I-81], the negative logarithm of the EC50 (pEC50) at hCB2 [1] and on hCB2 [5] was 6.00 to 7.00 each time. Also, the half-maximal inhibitory concentration (IC50) at hCB1 [2] was 1000 to 10000 nM; on hCB2 [4], 100 to 1000 nM. Moreover, at hCB1 [3] (cAMP agonist, HEK, 96-well), the “hCB1 EC50 (cAMP ag, nM, HEK (96-well))” value is “NS (“Not Significant,” which means less than 30% agonist activity when compared to the positive control)”.

(Values after patent publication US20130178453A1, “Cannabinoid Agonists” (priority 2010, published 2013).)
